# Test results as given in patent publication US20100196342A1, “MOOD, MEMORY AND COGNITIVE FUNCTION WITH PYRIDOXAL 5'-PHOSPHATE” (priority 2007, published 2010).
# Experiments:
# P2 purinoceptors = conditions: cited from earlier work
# healthy subjects = experiment: Phase I single ascending dose study, safety and tolerance; type: in vivo, human; conditions: single oral dosages up to 4000 mg
# Procedure: A Phase I, single center, single-dose, open-label, sequential ascending dose study to evaluate the safety and tolerance of pyridoxal-5′-phosphate, in an enteric-coated tablet, following a single dose of 250 mg, 750 mg, 1000 mg, and 4000 mg in healthy subjects under fasting conditions was conducted.
# A total of 32 healthy, adult subjects signed the study-specific Informed Consent Form and were confined in the clinical study unit; of these subjects, 24 (6 subjects in each dose level; 3 males and 3 females) were dosed and were enrolled in the study; all of these enrolled subjects completed the study. Subjects were confined to the SFBC Anapharm Clinical Research Facility from at least 12 hours prior to drug administration until after the 24.0-hour post-dose blood draw.
# Subjects enrolled in this study were members of the community at large. […] All participating subjects were judged eligible for the study when assessed against the inclusion and exclusion criteria. […]
# [1] = tested on: Individuals diagnosed with mild depression; experiment: Assessment of level of depression by depression inventory scales and DSM-IV; type: in vivo, human
# Procedure: Individuals diagnosed with mild depression are divided into four groups at random: control, low dose of P5P (100 mg/day), medium dose of P5P (250 mg/day), and high dose of P5P (750 mg/day). All dosages are administered orally for 3 weeks.
# The level of depression of the individuals is assessed, both before, and after treatment, using conventional methodologies. These include completion of several depression inventory questionnaire scales including the Cornell Scale for Depression in Dementia, Centre for Epidemiologic Studies Depression Scale, The Geriatric Depression Scale (Short Version), Beck Depression Inventory and the Zung Self-Rating Depression Scale as well as diagnosis by a trained professional according to the DSM-IV. These questionnaires measure depression through questions related to appetite, sadness, worthlessness/inadequacy, concentration, exhaustion, failure, retardation, socialization, isolation, anxiety, irritability, agitation, loss of interest, lack of energy, diurnal mood variation, insomnia, suicidal thoughts, low self-esteem, pessimism, mood congruent delusions, satisfaction, withdrawal, fulfillment, mood, fear, guilt, self-accusations, somatic preoccupation and loss of libido.
# [2] = tested on: Human males aged between 65 and 90; experiment: Associative learning task (colour-number association recall) in aged males; type: in vivo
# Procedure: Human males aged between 65 and 90 are separated into four random groups: control, low dose of P5P (100 mg/day), medium dose of P5P (250 mg/day), and high dose of P5P (750 mg/day). All dosages are administered orally for 3 weeks before subjecting the patients to an associative learning task.
# The patients are subjected to an associative learning task, as follows. Briefly, patients are comfortably seated in front of a computer. Patients are asked to learn the associations between six colors and the numbers 1-6, using trial and error. Subjects are then required to recall this association, a defined period of time after the associations are learned. Tests are repeated, with the defined period of time increasing, until the patients are no longer able to associate the colors with the numbers.
# healthy people = conditions: U.S. National Academy of Sciences recommendation; cited from earlier work
# males, ages 70-79 years = conditions: 20 mg daily for 3 months; cited from earlier work
# [3] = 250 mg/day vs 750 mg/day orally for 3 weeks
# [4] = P5P 100, 250 or 750 mg/day orally for 3 weeks
compound,measurement,setting,value
"Cc1ncc(COP(=O)(O)O)c(C=O)c1O [P5P, 3-hydroxy-2-methyl-5-[(phosphonooxy)methyl]-4-pyridine-carboxaldehyde]",effect on ATP induced calcium ion influx into cells,P2 purinoceptors,inhibits
same,"tolerability (side effects, evidence of toxicity)",healthy subjects,well tolerated
same,"level of depression, medium vs high dose group",[1]; [3],not significantly different
same,"level of depression, medium and high dose groups vs low dose group",[1]; 250 and 750 mg/day vs 100 mg/day orally for 3 weeks,significantly less depressed
same,level of depression vs control individuals,[1]; [4],significantly less depressed
same,"associative learning and memory, medium vs high dose group",[2]; [3],no significant difference
same,"time after which the number-colour association can be recalled, vs control patients",[2]; [4],significantly longer time
Cc1ncc(CO)c(CO)c1O [pyridoxine],Tolerable Upper Intake Level,healthy people,100 mg
vitamin B6,information storage vs matched placebo group,"males, ages 70-79 years",improved information storage
